Molecules are shown by their SMILES.

As a reminder, the IC50 is the concentration at which inhibition is half-maximal.

This test concerns the target Arginine--tRNA ligase (Staphylococcus aureus). Description: Inhibitory activity against cognate Staphylococcus aureus Arginyl-tRNA synthetase.

On to `N=C(N)NCCC[C@H](N)C(=O)NS(=O)(=O)OC[C@H]1O[C@@H](n2cnc3c(N)ncnc32)[C@H](O)[C@@H]1O` [Aminoalkyl adenylate and aminoacyl sulfamate analogue], for which the IC50 is 4.5 nM.
